Calls of active or inactive are those of the source. The calls are words filed in the database; no cut-off is given here. Where only a bound is given, the exact number is not on record here.

For assay [1], the target named is Acetylcholinesterase (Electrophorus electricus) (UniProt O42275). Kind of assay: Inhibition of electric eel AchE using acetylthiocholine as substrate at 10 uM measured for 6 mins by Ellman's method.
Assay [2] deals with Cholinesterase (Equus caballus) (UniProt P81908). The experiment in a line: Inhibition of equine serum BChE using (S)-butyrylthiocholine iodide as substrate at 10 uM measured for 6 mins by Ellman's method. A general note: In Ellman's method for cholinesterases, released thiocholine reacts with DTNB.
Sequence of Cholinesterase (Equus caballus) (P81908 whole entry): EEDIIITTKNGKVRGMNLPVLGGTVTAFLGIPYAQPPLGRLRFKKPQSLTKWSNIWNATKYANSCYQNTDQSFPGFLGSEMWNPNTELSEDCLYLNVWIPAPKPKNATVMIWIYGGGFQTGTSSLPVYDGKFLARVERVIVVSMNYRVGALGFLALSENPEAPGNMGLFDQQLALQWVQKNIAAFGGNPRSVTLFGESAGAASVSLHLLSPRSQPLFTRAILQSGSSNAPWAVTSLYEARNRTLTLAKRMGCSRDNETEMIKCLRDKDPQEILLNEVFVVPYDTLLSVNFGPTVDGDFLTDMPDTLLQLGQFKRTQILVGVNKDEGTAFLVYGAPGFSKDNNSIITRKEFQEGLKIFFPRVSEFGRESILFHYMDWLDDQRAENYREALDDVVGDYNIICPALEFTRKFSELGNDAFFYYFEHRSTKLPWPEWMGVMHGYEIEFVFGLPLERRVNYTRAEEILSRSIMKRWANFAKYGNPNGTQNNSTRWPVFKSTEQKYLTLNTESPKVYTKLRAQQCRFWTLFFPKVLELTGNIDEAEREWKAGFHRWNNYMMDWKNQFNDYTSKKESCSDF
In assay [3] the target is T1, Amine oxidase [flavin-containing] A (Homo sapiens, UniProt P21397).
T1 sequence (P21397 whole entry): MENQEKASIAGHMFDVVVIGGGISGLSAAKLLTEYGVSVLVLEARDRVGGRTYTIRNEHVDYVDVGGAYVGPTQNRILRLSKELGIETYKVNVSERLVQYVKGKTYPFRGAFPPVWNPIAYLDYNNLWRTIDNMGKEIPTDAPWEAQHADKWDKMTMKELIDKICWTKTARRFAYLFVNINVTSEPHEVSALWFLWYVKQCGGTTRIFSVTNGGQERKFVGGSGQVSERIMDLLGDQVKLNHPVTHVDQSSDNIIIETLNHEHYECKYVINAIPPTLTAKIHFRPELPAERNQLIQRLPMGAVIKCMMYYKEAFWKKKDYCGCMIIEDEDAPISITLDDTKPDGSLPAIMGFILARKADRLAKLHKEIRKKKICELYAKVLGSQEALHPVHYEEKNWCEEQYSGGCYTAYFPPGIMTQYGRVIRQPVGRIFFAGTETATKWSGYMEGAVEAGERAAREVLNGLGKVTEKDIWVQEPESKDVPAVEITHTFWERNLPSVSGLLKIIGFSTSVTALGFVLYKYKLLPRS
Description: Inhibition of recombinant human MAO-A incubated for 30 mins by fluorescence-based method

Assay [4] has as its target T2, Amine oxidase [flavin-containing] B (Homo sapiens, UniProt P27338).
T2 sequence (P27338 whole entry): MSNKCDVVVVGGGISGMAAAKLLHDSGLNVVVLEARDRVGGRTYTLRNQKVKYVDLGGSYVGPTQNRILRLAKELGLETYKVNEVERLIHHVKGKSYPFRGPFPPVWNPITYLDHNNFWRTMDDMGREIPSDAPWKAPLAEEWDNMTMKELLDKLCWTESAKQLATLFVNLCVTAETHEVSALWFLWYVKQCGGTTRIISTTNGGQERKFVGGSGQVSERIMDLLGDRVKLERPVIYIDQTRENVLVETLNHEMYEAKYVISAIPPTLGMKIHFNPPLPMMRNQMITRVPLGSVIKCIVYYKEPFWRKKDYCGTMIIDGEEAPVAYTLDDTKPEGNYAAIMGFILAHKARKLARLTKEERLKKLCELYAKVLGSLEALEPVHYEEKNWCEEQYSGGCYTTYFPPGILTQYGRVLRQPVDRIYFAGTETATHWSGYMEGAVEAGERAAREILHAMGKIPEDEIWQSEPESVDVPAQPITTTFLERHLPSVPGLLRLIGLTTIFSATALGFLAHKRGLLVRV
The note with it: 0.5 h, read-out: INH.
Description: Inhibition of recombinant human MAO-B at 10 uM incubated for 30 mins by fluorescence-based method

Sequence of Acetylcholinesterase (Electrophorus electricus) (O42275 24-633 limits assumed): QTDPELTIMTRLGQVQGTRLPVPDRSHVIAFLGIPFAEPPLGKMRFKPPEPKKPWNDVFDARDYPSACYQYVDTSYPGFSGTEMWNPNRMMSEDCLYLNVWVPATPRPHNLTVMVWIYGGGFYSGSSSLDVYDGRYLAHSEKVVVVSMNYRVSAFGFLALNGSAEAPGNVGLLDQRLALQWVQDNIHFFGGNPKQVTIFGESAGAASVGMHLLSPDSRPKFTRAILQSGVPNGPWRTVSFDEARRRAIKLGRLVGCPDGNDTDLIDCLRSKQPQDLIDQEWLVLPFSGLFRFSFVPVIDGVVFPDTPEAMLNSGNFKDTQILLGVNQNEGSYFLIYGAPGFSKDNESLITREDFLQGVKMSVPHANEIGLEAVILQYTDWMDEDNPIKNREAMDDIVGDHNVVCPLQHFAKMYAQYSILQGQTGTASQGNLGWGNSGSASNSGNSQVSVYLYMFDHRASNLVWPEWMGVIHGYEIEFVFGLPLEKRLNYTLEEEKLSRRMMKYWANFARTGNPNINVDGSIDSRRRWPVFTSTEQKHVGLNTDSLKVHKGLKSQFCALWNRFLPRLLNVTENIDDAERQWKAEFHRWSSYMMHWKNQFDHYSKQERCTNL

As usually defined, the IC50 is the midpoint of a concentration-inhibition curve. Read a low IC50 as greater potency. Regarding `C=C[C@H]1[C@H](O[C@@H]2O[C@H](CO)[C@@H](O)[C@H](O)[C@H]2O)OC=C(C(=O)OC)[C@H]1C[C@@H]1c2c(O)ccc3[nH]cc(c23)CCN1C`, the inhibition result in assay [1] and in assay [2] was “inactive” in each case. The IC50 in assay [3] was > 10000 nM.
On to `C[N+]1=Cc2c(O)ccc3[nH]cc(c23)CC1`, for which, in assay [4], the inhibition at 10 µM was 31%. Also, in assay [1], the inhibition entry is “inactive”. This molecule also returned an inhibition in assay [2] of 21%. This molecule also registered an IC50 in assay [3] of 900 nM.
Consider `C=C[C@H]1[C@H](O[C@@H]2O[C@H](CO)[C@@H](O)[C@H](O)[C@H]2O)OC=C(C(=O)OC)[C@H]1C[C@H]1c2c(O)ccc3[nH]cc(c23)CCN1C`, for which the inhibition result in assay [1] and in assay [2] was “inactive” each time. Moreover, in assay [3], the IC50 is > 10000 nM.
With `C=C[C@H]1[C@H](O[C@@H]2O[C@H](COC(=O)/C=C/c3ccc(OC)c(OC)c3)[C@@H](O)[C@H](O)[C@H]2O)OC=C(C(=O)OC)[C@H]1C[C@H]1c2c(O)ccc3[nH]cc(c23)CCN1C`, the inhibition entry in assay [1] and in assay [2] was “inactive” throughout. Moreover, the IC50 in assay [3] is > 10000 nM.
Consider `C#CCN(C)Cc1ccccc1` [PARGYLINE], for which, in assay [4], the inhibition at 10 µM turned out to be 0.14%.
As for `C[N+]1([O-])CCc2c[nH]c3ccc(O)c(c23)C1` (configuration not stated), the inhibition at 10 µM in assay [4] amounted to 27%. The inhibition result in assay [1] was “inactive”. Also, the inhibition in assay [2] is 41%. The IC50 in assay [3] was 1400 nM.
`CN1CCc2c[nH]c3ccc(O)c(c23)C1`: the inhibition at 10 µM in assay [4] stood at 22%. For the same molecule, in assay [1], the inhibition result was “inactive”. This molecule also came in with an inhibition in assay [2] of 18%. In assay [3], this molecule displayed an IC50 of 1400 nM.
